Assay results as given in paper PMC12090182, “Repurposing of the RIPK1-Selective Benzo[1,4]oxazepin-4-one Scaffold for the Development of a Type III LIMK1/2 Inhibitor” (ACS Chemical Biology, 2025).

Assays:
Experiment in all cases: biochemical
Type in all cases: binding
[1] = target: 468 kinases including some pathogenic mutants (Homo sapiens, UniProt O14730); conditions: RIOK3 (Entrez RIOK3), 100 nM; read-out: Percent Control
[2] = target: 468 kinases including some pathogenic mutants (Homo sapiens, UniProt P35968); conditions: VEGFR2 (Entrez KDR), 100 nM; read-out: Percent Control
[3] = target: 468 kinases including some pathogenic mutants (Homo sapiens, UniProt P42336, M1043I); conditions: read-out: Percent Control
[4] = target: 468 kinases including some pathogenic mutants (Homo sapiens, UniProt Q7KZI7); conditions: MARK2 (Entrez MARK2), 100 nM; read-out: Percent Control
[5] = target: 468 kinases including some pathogenic mutants (Homo sapiens, UniProt Q13627); conditions: DYRK1A (Entrez DYRK1A), 100 nM; read-out: Percent Control
[6] = target: 468 kinases including some pathogenic mutants (Homo sapiens, UniProt P42336, E545A); conditions: read-out: Percent Control
[7] = target: 468 kinases including some pathogenic mutants (Homo sapiens, UniProt P29323); conditions: EPHB2 (Entrez EPHB2), 100 nM; read-out: Percent Control
[8] = target: 468 kinases including some pathogenic mutants (Homo sapiens, UniProt Q9UQ88); conditions: CDC2L2 (Entrez CDC2L2), 100 nM; read-out: Percent Control
468 kinases including some pathogenic mutants (Homo sapiens, UniProt Q9UQ88), sequence (Q9UQ88 whole entry, change not shown): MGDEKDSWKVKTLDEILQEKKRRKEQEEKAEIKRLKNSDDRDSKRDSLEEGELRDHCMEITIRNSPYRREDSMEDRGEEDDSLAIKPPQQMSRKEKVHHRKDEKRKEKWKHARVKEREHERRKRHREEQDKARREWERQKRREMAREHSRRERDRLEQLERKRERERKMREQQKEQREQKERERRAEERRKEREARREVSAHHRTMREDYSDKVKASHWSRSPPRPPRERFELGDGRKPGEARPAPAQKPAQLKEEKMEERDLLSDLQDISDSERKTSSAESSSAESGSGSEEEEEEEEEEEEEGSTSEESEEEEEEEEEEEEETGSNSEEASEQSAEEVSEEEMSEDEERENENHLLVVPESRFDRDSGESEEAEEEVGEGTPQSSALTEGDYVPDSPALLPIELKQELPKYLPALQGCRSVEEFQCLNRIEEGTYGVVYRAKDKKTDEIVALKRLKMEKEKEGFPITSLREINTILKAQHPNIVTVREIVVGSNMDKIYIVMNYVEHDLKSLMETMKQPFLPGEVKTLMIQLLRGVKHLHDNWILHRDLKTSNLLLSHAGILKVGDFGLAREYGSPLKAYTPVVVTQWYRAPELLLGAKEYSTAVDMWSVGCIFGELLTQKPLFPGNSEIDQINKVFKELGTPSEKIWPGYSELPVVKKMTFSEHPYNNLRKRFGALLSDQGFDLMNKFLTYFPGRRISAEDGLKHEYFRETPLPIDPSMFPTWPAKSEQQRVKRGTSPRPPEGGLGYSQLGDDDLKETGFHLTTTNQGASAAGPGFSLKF

[9] = target: 468 kinases including some pathogenic mutants (Homo sapiens, UniProt Q00537); conditions: PCTK2 (Entrez CDK17), 100 nM; read-out: Percent Control
[10] = target: 468 kinases including some pathogenic mutants (Homo sapiens, UniProt Q56UN5); conditions: YSK4 (Entrez MAP3K19), 1000 nM; read-out: Percent Control
[11] = target: 468 kinases including some pathogenic mutants (Homo sapiens, UniProt P54760); conditions: EPHB4 (Entrez EPHB4), 100 nM; read-out: Percent Control
[12] = target: 468 kinases including some pathogenic mutants (Homo sapiens, UniProt Q9UHD2); conditions: TBK1 (Entrez TBK1), 100 nM; read-out: Percent Control
[13] = target: 468 kinases including some pathogenic mutants (Homo sapiens, UniProt P53350); conditions: PLK1 (Entrez PLK1), 100 nM; read-out: Percent Control
[14] = target: 468 kinases including some pathogenic mutants (Homo sapiens, UniProt P14616); conditions: INSRR (Entrez INSRR), 100 nM; read-out: Percent Control
[15] = target: 468 kinases including some pathogenic mutants (Homo sapiens, UniProt P36888, D835Y); conditions: read-out: Percent Control
[16] = target: 468 kinases including some pathogenic mutants (Homo sapiens, UniProt Q5VT25); conditions: MRCKA (Entrez CDC42BPA), 100 nM; read-out: Percent Control
[17] = target: 468 kinases including some pathogenic mutants (Homo sapiens, UniProt Q8N5S9); conditions: CAMKK1 (Entrez CAMKK1), 100 nM; read-out: Percent Control
[18] = target: 468 kinases including some pathogenic mutants (Homo sapiens, UniProt P00533, G719S); conditions: read-out: Percent Control
468 kinases including some pathogenic mutants (Homo sapiens, UniProt P00533, G719S), sequence (P00533 25-1210 G719S): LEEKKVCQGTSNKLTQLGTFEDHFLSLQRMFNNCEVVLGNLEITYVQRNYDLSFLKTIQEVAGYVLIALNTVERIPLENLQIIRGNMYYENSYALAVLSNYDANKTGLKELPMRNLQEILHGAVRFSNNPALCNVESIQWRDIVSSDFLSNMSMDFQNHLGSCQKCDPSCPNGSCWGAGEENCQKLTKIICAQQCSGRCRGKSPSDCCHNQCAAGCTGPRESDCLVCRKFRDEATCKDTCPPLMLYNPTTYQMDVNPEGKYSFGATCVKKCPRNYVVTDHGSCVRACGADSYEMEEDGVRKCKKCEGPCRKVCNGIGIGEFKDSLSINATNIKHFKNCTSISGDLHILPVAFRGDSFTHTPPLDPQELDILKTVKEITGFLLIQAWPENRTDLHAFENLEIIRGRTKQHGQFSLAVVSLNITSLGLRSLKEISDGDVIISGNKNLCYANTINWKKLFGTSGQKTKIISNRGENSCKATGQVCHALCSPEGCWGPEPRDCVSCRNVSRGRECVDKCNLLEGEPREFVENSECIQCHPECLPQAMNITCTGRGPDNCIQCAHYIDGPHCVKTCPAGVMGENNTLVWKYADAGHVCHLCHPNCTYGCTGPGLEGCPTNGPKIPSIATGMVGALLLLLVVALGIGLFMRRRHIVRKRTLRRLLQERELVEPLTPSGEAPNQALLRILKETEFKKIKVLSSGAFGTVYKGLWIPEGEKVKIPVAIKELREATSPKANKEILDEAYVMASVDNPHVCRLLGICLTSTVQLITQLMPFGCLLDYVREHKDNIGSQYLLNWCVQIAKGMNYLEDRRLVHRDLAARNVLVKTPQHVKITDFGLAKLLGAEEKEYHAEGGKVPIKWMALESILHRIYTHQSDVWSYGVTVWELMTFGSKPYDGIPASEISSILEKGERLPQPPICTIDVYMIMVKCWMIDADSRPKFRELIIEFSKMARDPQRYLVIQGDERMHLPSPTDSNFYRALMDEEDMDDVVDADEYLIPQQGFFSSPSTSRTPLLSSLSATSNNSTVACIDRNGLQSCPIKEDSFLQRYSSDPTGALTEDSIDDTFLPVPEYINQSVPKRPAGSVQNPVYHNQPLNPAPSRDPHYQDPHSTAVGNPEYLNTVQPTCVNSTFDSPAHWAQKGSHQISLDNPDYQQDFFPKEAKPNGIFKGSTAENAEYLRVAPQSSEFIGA

[19] = target: 468 kinases including some pathogenic mutants (Homo sapiens, UniProt P50750); conditions: CDK9 (Entrez CDK9), 100 nM; read-out: Percent Control
[20] = target: 468 kinases including some pathogenic mutants (Homo sapiens, UniProt Q9P289); conditions: MST4 (Entrez MST4), 100 nM; read-out: Percent Control
[21] = target: 468 kinases including some pathogenic mutants (Homo sapiens, UniProt P17612); conditions: PKAC-alpha (Entrez PRKACA), 1000 nM; read-out: Percent Control
[22] = target: 468 kinases including some pathogenic mutants (Homo sapiens, UniProt P00533, G719C); conditions: read-out: Percent Control
[23] = target: 468 kinases including some pathogenic mutants (Homo sapiens, UniProt O95747); conditions: OSR1 (Entrez OXSR1), 100 nM; read-out: Percent Control
468 kinases including some pathogenic mutants (Homo sapiens, UniProt O95747), sequence (O95747 whole entry, change not shown): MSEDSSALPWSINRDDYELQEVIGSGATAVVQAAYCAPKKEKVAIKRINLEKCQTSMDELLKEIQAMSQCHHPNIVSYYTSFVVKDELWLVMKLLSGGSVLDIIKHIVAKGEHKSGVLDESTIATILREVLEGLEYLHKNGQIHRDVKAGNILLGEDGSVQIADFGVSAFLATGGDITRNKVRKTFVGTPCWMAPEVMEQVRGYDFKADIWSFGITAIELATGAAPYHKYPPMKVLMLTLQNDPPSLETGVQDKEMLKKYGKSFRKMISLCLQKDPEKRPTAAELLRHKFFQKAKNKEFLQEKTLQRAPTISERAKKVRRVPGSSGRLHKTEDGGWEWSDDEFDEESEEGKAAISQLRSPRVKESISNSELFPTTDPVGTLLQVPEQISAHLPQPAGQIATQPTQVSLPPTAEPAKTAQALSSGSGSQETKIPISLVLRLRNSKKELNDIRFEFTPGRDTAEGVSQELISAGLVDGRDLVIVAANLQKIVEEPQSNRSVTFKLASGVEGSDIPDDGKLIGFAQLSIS

[24] = target: 468 kinases including some pathogenic mutants (Homo sapiens, UniProt Q9BVS4); conditions: RIOK2 (Entrez RIOK2), 1000 nM; read-out: Percent Control
[25] = target: 468 kinases including some pathogenic mutants (Homo sapiens, UniProt P41743); conditions: PRKCI (Entrez PRKCI), 100 nM; read-out: Percent Control
[26] = target: 468 kinases including some pathogenic mutants (Homo sapiens, UniProt Q00526); conditions: CDK3 (Entrez CDK3), 100 nM; read-out: Percent Control
[27] = target: 468 kinases including some pathogenic mutants (Homo sapiens, UniProt P21860); conditions: ERBB3 (Entrez ERBB3), 100 nM; read-out: Percent Control
468 kinases including some pathogenic mutants (Homo sapiens, UniProt P21860), sequence (P21860 20-1342, change not shown): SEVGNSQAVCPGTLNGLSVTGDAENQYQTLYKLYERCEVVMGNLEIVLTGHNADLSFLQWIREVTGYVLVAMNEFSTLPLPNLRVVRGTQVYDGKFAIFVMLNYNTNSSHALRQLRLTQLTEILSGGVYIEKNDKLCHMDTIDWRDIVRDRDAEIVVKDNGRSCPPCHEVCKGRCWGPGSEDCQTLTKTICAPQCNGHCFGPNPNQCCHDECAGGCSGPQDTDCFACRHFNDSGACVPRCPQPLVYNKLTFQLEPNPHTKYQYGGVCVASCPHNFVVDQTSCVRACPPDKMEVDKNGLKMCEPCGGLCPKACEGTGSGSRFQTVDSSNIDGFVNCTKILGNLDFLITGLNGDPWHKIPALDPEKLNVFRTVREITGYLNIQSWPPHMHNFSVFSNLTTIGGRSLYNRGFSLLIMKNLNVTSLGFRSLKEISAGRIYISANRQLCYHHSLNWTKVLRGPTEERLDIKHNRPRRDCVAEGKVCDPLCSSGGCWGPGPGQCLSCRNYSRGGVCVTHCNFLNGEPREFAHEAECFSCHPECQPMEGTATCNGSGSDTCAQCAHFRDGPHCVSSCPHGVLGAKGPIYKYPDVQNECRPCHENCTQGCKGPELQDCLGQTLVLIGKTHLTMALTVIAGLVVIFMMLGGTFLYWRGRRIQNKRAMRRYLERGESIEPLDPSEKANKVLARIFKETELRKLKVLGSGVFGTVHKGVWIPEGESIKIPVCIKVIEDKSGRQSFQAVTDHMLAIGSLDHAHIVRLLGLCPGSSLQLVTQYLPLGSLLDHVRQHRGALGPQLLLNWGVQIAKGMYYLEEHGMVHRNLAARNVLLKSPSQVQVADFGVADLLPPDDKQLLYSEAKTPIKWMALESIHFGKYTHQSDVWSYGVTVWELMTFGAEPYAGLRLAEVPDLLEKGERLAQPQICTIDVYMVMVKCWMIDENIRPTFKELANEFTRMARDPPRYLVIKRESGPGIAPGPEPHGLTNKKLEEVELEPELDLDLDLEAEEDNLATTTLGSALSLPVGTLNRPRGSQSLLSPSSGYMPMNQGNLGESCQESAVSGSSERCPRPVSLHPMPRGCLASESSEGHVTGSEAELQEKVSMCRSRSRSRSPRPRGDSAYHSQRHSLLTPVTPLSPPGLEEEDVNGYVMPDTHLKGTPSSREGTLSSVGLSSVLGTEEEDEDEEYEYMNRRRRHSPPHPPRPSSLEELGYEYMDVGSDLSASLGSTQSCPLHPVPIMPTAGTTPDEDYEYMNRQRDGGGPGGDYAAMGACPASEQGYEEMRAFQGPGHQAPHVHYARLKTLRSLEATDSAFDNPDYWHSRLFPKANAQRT

[28] = target: 468 kinases including some pathogenic mutants (Homo sapiens, UniProt P35916); conditions: FLT4 (Entrez FLT4), 100 nM; read-out: Percent Control
[29] = target: 468 kinases including some pathogenic mutants (Homo sapiens, UniProt Q9H3Y6); conditions: SRMS (Entrez SRMS), 1000 nM; read-out: Percent Control
468 kinases including some pathogenic mutants (Homo sapiens, UniProt Q9H3Y6), sequence (Q9H3Y6 whole entry, change not shown): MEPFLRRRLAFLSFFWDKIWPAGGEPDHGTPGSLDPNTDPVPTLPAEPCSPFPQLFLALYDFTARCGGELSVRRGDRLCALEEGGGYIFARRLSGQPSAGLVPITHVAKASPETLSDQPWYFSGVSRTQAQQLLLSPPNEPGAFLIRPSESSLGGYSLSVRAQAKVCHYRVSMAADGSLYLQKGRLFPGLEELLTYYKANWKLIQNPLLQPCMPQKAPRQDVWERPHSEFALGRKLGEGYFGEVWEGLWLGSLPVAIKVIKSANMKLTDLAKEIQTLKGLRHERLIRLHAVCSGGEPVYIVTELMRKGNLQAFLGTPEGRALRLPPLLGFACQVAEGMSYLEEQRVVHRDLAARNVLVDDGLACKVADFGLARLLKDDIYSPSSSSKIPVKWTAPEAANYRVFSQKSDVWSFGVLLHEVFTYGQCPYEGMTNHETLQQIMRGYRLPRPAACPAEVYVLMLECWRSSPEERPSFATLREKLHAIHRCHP

468 kinases including some pathogenic mutants (Homo sapiens, UniProt O14730), sequence (O14730 whole entry, change not shown): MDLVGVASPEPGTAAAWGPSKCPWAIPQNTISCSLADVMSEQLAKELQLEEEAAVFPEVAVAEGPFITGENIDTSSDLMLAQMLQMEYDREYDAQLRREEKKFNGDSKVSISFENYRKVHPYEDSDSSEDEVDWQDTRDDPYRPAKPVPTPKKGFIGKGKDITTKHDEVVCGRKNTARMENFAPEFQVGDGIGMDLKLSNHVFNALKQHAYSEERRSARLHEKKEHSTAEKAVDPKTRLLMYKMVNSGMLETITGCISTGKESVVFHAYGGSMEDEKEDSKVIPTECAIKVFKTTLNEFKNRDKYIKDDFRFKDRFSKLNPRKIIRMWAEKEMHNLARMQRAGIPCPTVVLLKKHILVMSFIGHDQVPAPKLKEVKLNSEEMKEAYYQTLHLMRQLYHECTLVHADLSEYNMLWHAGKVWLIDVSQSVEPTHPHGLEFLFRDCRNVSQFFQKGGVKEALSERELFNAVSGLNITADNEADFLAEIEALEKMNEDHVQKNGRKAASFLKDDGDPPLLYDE

Structure (SMILES): CN1C(=O)[C@@H](N2CCc3c(nn(Cc4ccccc4)c3C(N)=O)C2=O)COc2cc(Cl)ccc21 [Compound 10, (S)-2-benzyl-6-(8-chloro-5-methyl-4-oxo-2,3,4,5-tetrahydrobenzo[b][1,4]oxazepin-3-yl)-7-oxo-4,5,6,7-tetrahydro-2H-pyrazolo[3,4-c]pyridine-3-carboxamide]
- remaining activity at 0.1 µM [1]: 63%
- remaining activity at 0.1 µM [2]: 81%
- remaining activity at 0.1 µM [3]: 78%
- remaining activity at 0.1 µM [4]: 78%
- remaining activity at 0.1 µM [5]: 89%
- remaining activity at 1 µM [6]: 100%
- remaining activity at 0.1 µM [7]: 98%
- remaining activity at 0.1 µM [8]: 100%
- remaining activity at 0.1 µM [9]: 83%
- remaining activity at 1 µM [10]: 100%
- remaining activity at 0.1 µM [11]: 72%
- remaining activity at 0.1 µM [12]: 89%
- remaining activity at 0.1 µM [13]: 68%
- remaining activity at 0.1 µM [14]: 68%
- remaining activity at 0.1 µM [15]: 95%
- remaining activity at 0.1 µM [16]: 73%
- remaining activity at 0.1 µM [17]: 70%
- remaining activity at 0.1 µM [18]: 100%
- remaining activity at 0.1 µM [19]: 92%
- remaining activity at 0.1 µM [20]: 77%
- remaining activity at 1 µM [21]: 100%
- remaining activity at 0.1 µM [22]: 100%
- remaining activity at 0.1 µM [23]: 100%
- remaining activity at 1 µM [24]: 100%
- remaining activity at 0.1 µM [25]: 81%
- remaining activity at 0.1 µM [26]: 80%
- remaining activity at 0.1 µM [27]: 84%
- remaining activity at 0.1 µM [28]: 76%
- remaining activity at 1 µM [29]: 100%
